Reference: US20100035867A1 (priority 2006, published 2010)
Several values for one entry are separate records, joined by “and”; a condition that tells them apart may be missing. Equal entries are not always repeated.

What was measured:
adenylyl cyclase [1] = format: cell-based, human
[2] = system: adenylyl cyclase or guanylyl cyclase; format: cell-based; conditions: read-out: typical IC50
[3] = target: pertussis adenylyl cyclase toxin (Bordetella pertussis, UniProt P0DKX7); test: Cyclic AMP accumulation in T84 cells infected with pertussis adenylyl cyclase toxin; format: cell-based; conditions: 50 μM compound
Protocol: The assay was performed in T84 cells by the methods described in Example 2 and Ahuja, N.; Kumar, P.; Bhatnagar, R., The adenylate cyclase toxins. Crit Rev Microbiol 2004, 30, (3), 187-96, but the amount of cyclic AMP accumulated was assayed with a commercially available kit from Cayman Chemical Co.
Cells were treated with pertussis adenylyl cyclase toxin at 1 μg/ml in Dulbecco's minimal essential medium for 60 min in the presence of vehicle DMSO (0.1%) or 50 μM compound IIb for 60 min and then medium was aspirated and replaced with DPBS containing 1 mM IBMX and DMSO or compound IIb, respectively, for the vehicle and compound IIb-treated samples. After 10 min incubation, the amount of cyclic AMP was measured. […] N=3.

T84 cells = test: STa-induced chloride transport in T84 cells (SPQ); format: cell-based, human; conditions: increasing STa concentrations, 50 μM compound
Protocol: The chloride transport assay was performed by a method known in the art (West, M. R.; Molloy, C. R., A microplate assay measuring chloride ion channel activity. Anal Biochem 1996, 241, (1), 51-8). In some experiments, MQAE was used as a fluorescent sensor for chloride anions and in other experiments, SPQ was used to detect chloride efflux from T84 cells.
This experiment followed the protocol described in Examples 2 and 10. SPQ was used to detect chloride efflux from T84 cells.

[4] = target: anthrax edema toxin (protective antigen and edema factor) (Bacillus anthracis, UniProt P40136); format: cell-based
adenylyl cyclase [5] = format: cell-based, human; remark: listed apart in the source
[6] = target: T1, guanylyl cyclase type A (GC-A) (Rattus norvegicus, UniProt P18910); test: ANP-induced cyclic GMP accumulation in RFL-6 fibroblast cells; conditions: RFL-6 cells, 1 μM ANP, 50 μM compound
T1 sequence (P18910 29-1057): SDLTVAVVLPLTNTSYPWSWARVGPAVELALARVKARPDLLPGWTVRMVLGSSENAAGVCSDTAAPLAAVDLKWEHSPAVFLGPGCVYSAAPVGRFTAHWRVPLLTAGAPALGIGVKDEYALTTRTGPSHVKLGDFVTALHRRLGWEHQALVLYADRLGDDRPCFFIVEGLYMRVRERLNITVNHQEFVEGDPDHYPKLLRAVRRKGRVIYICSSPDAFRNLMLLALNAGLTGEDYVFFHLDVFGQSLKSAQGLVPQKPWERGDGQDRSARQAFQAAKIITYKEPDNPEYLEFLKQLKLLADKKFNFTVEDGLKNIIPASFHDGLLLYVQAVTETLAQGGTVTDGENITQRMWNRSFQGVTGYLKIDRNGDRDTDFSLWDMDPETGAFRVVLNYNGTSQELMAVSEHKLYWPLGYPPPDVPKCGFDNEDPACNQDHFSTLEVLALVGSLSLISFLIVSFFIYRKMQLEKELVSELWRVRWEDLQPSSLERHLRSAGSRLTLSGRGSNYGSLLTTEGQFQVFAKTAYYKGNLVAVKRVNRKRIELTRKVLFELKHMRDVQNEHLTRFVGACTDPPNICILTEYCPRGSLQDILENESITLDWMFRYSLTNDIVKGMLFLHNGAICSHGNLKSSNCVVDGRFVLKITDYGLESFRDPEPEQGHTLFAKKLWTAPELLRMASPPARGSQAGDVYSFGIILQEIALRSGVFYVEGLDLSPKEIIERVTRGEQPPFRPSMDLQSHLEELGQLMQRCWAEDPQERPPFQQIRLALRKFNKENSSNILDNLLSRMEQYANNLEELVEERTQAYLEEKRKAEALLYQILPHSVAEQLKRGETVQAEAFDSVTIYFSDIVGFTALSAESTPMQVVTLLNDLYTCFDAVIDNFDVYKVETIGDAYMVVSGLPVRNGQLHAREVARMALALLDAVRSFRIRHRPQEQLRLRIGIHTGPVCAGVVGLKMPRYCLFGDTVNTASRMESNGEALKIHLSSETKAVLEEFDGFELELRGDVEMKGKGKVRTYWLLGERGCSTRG

Sequence of pertussis adenylyl cyclase toxin (P0DKX7 whole entry, looked up): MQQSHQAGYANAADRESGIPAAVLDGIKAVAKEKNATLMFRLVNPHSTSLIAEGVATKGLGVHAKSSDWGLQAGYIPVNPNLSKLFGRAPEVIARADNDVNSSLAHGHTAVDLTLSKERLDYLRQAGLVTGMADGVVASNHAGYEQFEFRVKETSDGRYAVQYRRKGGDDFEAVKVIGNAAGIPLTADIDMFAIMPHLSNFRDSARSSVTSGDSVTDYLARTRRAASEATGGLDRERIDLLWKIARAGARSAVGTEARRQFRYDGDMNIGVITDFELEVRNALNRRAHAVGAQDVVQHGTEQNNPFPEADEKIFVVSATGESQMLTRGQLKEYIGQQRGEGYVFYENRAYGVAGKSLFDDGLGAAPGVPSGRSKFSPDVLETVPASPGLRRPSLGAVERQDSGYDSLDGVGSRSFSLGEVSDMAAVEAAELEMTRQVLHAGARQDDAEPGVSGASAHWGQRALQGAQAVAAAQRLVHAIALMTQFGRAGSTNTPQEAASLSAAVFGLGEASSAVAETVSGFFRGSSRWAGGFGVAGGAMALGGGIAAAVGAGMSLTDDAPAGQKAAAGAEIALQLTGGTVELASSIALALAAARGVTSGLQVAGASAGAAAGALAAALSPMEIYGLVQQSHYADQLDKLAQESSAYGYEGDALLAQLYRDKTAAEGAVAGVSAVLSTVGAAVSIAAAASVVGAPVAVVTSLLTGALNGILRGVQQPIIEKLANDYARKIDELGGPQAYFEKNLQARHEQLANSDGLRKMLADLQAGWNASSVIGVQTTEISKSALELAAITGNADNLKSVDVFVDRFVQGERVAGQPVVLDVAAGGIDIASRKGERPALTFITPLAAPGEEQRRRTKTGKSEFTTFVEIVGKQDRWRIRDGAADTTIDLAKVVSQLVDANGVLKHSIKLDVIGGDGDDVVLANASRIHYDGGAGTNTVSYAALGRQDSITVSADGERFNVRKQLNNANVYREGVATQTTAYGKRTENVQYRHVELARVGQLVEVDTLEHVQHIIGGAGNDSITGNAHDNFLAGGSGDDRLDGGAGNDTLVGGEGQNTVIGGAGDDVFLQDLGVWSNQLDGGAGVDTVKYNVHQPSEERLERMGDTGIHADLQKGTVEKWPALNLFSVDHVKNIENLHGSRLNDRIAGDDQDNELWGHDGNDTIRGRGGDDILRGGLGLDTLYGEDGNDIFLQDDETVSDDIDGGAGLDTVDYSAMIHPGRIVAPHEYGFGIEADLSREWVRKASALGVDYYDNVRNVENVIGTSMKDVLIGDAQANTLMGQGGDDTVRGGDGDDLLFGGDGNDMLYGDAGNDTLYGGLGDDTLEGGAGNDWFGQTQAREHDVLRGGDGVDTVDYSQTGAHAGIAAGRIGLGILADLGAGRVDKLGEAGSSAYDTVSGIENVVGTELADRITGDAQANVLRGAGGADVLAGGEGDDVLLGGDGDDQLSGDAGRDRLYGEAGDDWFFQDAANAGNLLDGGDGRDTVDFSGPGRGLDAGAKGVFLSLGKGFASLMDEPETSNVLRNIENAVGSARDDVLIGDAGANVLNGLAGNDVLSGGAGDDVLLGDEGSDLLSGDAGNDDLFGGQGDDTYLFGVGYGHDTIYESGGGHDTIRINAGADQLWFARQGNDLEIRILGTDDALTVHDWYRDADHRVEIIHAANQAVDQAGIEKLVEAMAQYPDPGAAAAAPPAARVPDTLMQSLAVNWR
Sequence of anthrax edema toxin (protective antigen and edema factor) (P40136 whole entry, looked up): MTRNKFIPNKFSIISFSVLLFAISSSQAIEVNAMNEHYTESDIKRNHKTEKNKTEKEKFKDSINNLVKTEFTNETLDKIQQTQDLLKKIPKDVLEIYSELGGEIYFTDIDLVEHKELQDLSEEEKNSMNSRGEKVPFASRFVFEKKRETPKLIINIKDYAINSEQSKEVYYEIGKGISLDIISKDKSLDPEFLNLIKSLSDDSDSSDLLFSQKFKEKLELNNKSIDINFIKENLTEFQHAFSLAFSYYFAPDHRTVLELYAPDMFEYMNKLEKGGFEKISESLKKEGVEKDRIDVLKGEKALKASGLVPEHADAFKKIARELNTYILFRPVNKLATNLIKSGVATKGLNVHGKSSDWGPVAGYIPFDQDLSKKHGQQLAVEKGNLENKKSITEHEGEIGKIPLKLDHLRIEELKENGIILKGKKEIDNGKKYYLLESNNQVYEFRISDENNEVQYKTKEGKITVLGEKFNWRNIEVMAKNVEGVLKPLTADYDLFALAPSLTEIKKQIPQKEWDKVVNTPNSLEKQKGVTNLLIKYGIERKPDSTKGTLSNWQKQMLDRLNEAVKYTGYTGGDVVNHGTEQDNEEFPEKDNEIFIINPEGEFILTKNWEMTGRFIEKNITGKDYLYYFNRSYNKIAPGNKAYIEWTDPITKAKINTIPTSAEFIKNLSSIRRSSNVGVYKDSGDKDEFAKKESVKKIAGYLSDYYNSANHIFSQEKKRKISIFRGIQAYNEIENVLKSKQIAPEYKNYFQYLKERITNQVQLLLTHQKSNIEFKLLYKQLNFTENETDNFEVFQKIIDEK

Cn1c2c(c(=O)n(C)c1=O)C(c1cccc(Br)c1)C1=C(N2)c2ccccc2C1=O (stereo not shown) [compound IIb]
inhibition of cyclic AMP accumulation (adenylyl cyclase [1]): 41.3% and 58.2% | IC50 [2]: ~5 µM | cyclic AMP accumulation ([3]; toxin 1 μg/ml 60 min, vehicle 9.97±0.72): 4.06±0.44 nmol/mg protein | decrease of cyclic AMP accumulation ([3]; toxin 1 μg/ml): 59.2% | STa-induced increase in chloride efflux (T84 cells): significantly suppressed | cyclic AMP accumulation [4]: 62.1±6.3 pmol/mg protein | decrease of cyclic AMP accumulation [4]: 55.2% | amount of cyclic AMP accumulated (adenylyl cyclase [5]): 1.2±0.1 nmol/mg protein | inhibition of cholera toxin-induced cyclic AMP (adenylyl cyclase [5]; T84 cells, cholera toxin 1 μg/ml, 50 μM compound): 84.6% | inhibition of cyclic GMP accumulation (FIG. 6) [6]: inhibition
